ChEMBL document CHEMBL5506002, “The discovery of potent USP2/USP8 dual-target inhibitors for the treatment of breast cancer via structure guided optimization of ML364” (Eur J Med Chem, 2024)
pIC50: −log10 of the molar value.

Key:
[1] = target: T1, Ubiquitin carboxyl-terminal hydrolase 2 (Homo sapiens, UniProt O75604); assay: Inhibition of USP2 (unknown origin) using Di-Ub IQF K48-4 as substrate preincubated for 10 mins followed by substrate addition by high-throughput assay
T1 sequence (O75604 whole entry): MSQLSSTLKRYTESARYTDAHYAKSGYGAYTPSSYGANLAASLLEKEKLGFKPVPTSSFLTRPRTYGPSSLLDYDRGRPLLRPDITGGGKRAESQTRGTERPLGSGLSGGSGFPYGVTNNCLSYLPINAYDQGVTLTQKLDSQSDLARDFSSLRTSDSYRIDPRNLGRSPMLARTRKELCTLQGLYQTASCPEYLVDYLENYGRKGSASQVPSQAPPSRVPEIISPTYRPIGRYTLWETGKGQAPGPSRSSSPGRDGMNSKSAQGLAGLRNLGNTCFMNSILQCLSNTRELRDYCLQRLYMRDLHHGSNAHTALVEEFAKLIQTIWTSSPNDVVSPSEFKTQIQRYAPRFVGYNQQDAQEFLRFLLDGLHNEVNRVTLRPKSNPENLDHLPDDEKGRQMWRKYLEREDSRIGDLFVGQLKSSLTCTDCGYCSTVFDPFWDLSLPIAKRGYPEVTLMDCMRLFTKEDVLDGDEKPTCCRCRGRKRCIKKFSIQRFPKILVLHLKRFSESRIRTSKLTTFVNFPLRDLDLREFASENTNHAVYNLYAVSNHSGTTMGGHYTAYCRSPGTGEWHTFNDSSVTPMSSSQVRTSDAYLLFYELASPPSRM

[2] = target: T2, Ubiquitin carboxyl-terminal hydrolase 8 (Homo sapiens, UniProt P40818); assay: Inhibition of USP8 (unknown origin) using Di-Ub IQF K48-02 as substrate preincubated for 30 mins followed by substrate addition by high-throughput assay
T2 sequence (P40818 whole entry): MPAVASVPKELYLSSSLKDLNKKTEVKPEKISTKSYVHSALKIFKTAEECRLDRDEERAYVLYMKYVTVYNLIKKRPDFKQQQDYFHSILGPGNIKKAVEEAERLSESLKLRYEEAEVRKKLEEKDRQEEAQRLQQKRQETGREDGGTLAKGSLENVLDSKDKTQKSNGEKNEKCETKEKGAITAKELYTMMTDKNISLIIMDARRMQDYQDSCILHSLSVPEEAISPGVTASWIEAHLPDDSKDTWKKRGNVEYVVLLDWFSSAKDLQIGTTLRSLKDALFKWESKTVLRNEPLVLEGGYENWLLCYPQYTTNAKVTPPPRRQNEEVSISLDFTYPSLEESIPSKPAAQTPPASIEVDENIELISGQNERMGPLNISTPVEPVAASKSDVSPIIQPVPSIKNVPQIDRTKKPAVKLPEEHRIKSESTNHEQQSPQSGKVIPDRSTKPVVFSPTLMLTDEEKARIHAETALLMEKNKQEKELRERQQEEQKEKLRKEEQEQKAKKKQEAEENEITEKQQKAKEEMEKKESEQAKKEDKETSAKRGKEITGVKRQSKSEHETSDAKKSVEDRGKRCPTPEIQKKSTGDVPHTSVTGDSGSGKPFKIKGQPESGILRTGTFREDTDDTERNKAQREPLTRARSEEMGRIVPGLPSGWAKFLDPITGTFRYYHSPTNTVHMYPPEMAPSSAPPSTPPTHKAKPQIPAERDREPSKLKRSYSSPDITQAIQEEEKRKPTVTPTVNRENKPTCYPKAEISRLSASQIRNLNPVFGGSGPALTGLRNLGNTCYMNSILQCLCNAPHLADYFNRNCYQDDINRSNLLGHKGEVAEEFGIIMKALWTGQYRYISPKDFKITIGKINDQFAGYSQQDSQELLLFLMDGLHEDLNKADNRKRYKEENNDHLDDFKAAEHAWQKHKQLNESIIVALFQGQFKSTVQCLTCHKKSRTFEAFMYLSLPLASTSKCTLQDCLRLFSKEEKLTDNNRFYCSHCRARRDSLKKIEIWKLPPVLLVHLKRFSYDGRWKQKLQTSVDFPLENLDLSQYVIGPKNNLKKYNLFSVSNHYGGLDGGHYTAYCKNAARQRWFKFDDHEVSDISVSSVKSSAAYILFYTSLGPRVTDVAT

[3] = target: T1, Ubiquitin carboxyl-terminal hydrolase 2; assay: Inhibition of USP2 (267 to 599 residues) (unknown origin) expressed in Escherichia coli BL21 (DE3) cells using ubiquitin-rhodamine-110 as substrate preincubated with compound for 30 mins followed by substrate addition measured after 30 mins by fluorometric assay
[4] = target: T2, Ubiquitin carboxyl-terminal hydrolase 8; assay: Inhibition of N-terminal His6 tagged USP8 (734 to 1110 residues) (unknown origin) expressed in Escherichia coli BL21 (DE3) cells using ubiquitin-rhodamine-110 as substrate preincubated with compound for 30 mins followed by substrate addition measured after 30 mins by fluorometric assay
MCF7 = assay: Antiproliferative activity against human MCF7 cells assessed as inhibition of cell growth incubated for 72 hrs by MTT assay; assay type: functional, cell-based; settings: MCF7, 72 h
[5] = Cytotoxicity against human MCF-10A cells assessed as inhibition of cell growth incubated for 72 hrs by MTT assay; assay type: toxicity, cell-based
in vitro [6] = settings: mouse, microsomes
Description: Stability in mouse microsomes assessed as compound remaining measured after 30 mins

in vitro [7] = settings: human, microsomes
Description: Stability in human microsomes assessed as compound remaining measured after 30 mins

in vitro [8] = settings: mouse, plasma
Description: Stability in mouse plasma assessed as compound remaining measured after 30 mins

Which results are given for CCCCS(=O)(=O)Cc1nc2c(nc1CS(=O)(=O)CCCC)C(=O)c1ccccc1C2=O?
pIC50 [1]: > 6.10; pIC50 [2]: > 7.00

With Cc1ccc(S(=O)(=O)Nc2cc(C(F)(F)F)ccc2C(=O)Nc2nc(-c3ccccc3)cs2)cc1 as the compound, how does the pIC50 [3] read?
The pIC50 was 5.44.

And the pIC50 [4]?
Its pIC50 is 5.33.

And the pIC50 (MCF7)?
The pIC50 was 5.03.

What about the IC50 at 72 h [5] of the same compound?
Its IC50 at 72 h is 14.5 µM.

And the remaining at 0.5 h (in vitro [6])?
Its remaining at 0.5 h is 72%.

And the remaining at 0.5 h (in vitro [7])?
The remaining at 0.5 h was over 90%.

What about the remaining at 0.5 h (in vitro [8]) of the same compound?
Its remaining at 0.5 h is over 90%.
